Test results reported in US20190358176A1, “METHODS OF SENSITIZING CANCER CELLS TO IMMUNE CELL KILLING” (University of Pittsburgh - of the Commonwealth System of …, priority 2017, published 2019).
Read-outs that look alike come from different tables or passages of the source.

Key:
rat hepatocytes [1] = test: Hepatocyte mitochondrial function (TMRE staining); format: cell-based
Protocol: (§1) Rat hepatocytes were isolated using standard two step collagenase digestion (15) and sub-cultivated at 14,000 hepatocytes/well in collagen-1 coated 384 well plates in Williams E Medium supplemented with 10% FBS, 2 mM L-glutamine and 50 U/ml Penicillin and streptomycin. After 4 hours, medium was decanted and replaced with Hepatocyte Maintenance Media (Williams E supplemented with 1.25 mg/ml bovine serum albumin, 6.25 μg/ml human insulin, 100 nM dexamethasone, 6.25 μg/ml human transferrin, 6.25 ng/ml selenous acid, 2 mM L-glutamine, 15 mM HEPES, 100 U/mL penicillin, and 100 U/mL streptomycin). After overnight culture, cells were treated with concentration gradients of test agents. One hour after compound addition, cells were labeled with 200 nM TMRE and 4 μg/ml Hoechst 33342 for 45 min, imaged live on an ArrayScan VTI using a 10× objective, and images were analyzed with the Compartmental Bioapplication. Mitochondria were identified as cytosolic spots by size and brightness. The final parameter was % HIGH RingSpotAvgIntenCh2 (i.e., percentage of cells with TMRE puncta in the cytoplasm based on a threshold set with vehicle treated cells).

NCI 60 cell line panel = conditions: NSC150117, last tested June 2016; cited from earlier work
[2] = system: ERK, JNK/SAPK, p38, MEK1 and MKK4/SEK1 phosphorylation; test: Western blot of MAPK cascade phosphorylation; format: cell-based, human; conditions: MDA-MB-231 cells, 20 μM
[3] = system: DUSP6/MKP-3 and DUSP1/MKP-1; conditions: HeLa cells, prior study (12); cited from earlier work
MDA-MB-231 cells [4] = test: Detection and quantitation of ROS in cancer cells (CM-H2-DCFDA); format: cell-based, human; conditions: for EC50: read-out: EC50 of ROS generation
Protocol: Detection and quantitation of ROS in cancer cells was performed as described before (14). Briefly, MDA-MB-231 cells were labeled with Hoechst 33342, loaded with CM-H2-DCFDA (5 μM, 15 min), and treated with test agents for 10 min. After two washes, cells were analyzed for Hoechst and ROS/FITC fluorescence on the ArrayScan II. Cells were classified as positive for ROS if their average FITC intensity exceeded a threshold defined as the average FITC intensity plus one SD from DMSO-treated wells.

rat hepatocytes [5] = test: Five-day hepatocyte toxicity (PI positive cells); format: cell-based
Protocol: as §1
A gelling solution of 1.25 mg/ml rat tail collagen type I in pH 7.2 90:10 (v/v) Williams E media/10×HBSS was overlaid onto the rat hepatocytes. The collagen gel was incubated for 1 hour at 37° C., 5% CO2. The collagen sandwich cultures were then challenged for 5 days to test compounds in Hepatocyte Maintenance Media, without refeeding. A 10× solution of 40 μg/ml Hoechst 33342 was added during the final 2 hours of incubation followed by a 10× solution of 20 μg/ml PI for 1 hour. Cells were imaged and the percentage of PI positive cells calculated as above.

[6] = system: patient-derived pre-B acute lymphoblastic leukemia (pre-B-ALL) cells; conditions: literature (46); cited from earlier work
MDA-MB-231 cells [7] = test: HCA of apoptosis and ERK phosphorylation (multiparametric: nuclear condensation, caspase-3 cleavage, ERK phosphorylation); format: cell-based, human; conditions: for IC50: Homo sapiens, 24 hours
Protocol: MDA-MB-231 cells (10,000/well) were treated with identical concentration gradients of test agents on the right and left half of a 384 well microplate for later assessment of potential compound autofluorescence. After 24 hours, cells were fixed, permeabilized with 0.2% Triton X-100, blocked with 1% BSA/PBS, and immunostained with anti-phospho-ERK (E10, CST cat#9106L)/AlexaFluor488 and anti-cleaved caspase-3 (CST cat#9664L)/AlexaFluor594 primary/secondary antibody pairs. Plates were imaged on the ArrayScan II using a 10×0.5NA objective. Each well was background corrected by subtracting mean phospho-ERK and cleaved caspase-3 intensities from wells that had received secondary antibody only. Data in Table 1 are the averages of the indicated numbers of independent experiments, each performed in quadruplicate. IC50, standard error, and 95% confidence intervals were calculated by […] in GraphPad Prism.
Multiple data points were analyzed in GraphPad Prism by one-way ANOVA using Dunnett's multiple comparison test. EC50/IC50 values were obtained from at least three independent experiments by non-linear regression using a four parameter logistic equation. IC50, standard error, and 95% confidence intervals were calculated in GraphPad.

MDA-MB-231 cells [8] = test: HCA of cell motility and cytotoxicity (Oris Pro 384 cell migration plate); format: cell-based, human; conditions: 48 hours, at antimigratory concentrations
Protocol: HCA of cell motility and cytotoxicity was performed essentially as described (51). MDA-MB-231 cells (15,000/well) were plated in collagen-coated Oris™ Pro 384-well microplates (Platypus Technologies cat # PRO384CMACCS) containing a chemical exclusion zone that dissolves upon cell seeding. Two hours after plating, medium was removed, and cells treated with ten-point, two-fold concentration gradients of test agents. Forty-eight hours after treatment, cells were stained with 10 μg/ml Hoechst 33342 and 1 μg/ml PI in HBSS for 15 min at 37° C. Plates were washed once with PBS and scanned live on the ArrayScan II using a 5× objective. To capture cells that had entered into the exclusion zone, a single field was acquired in the center of the well and nuclei therein enumerated. To assess changes in cell loss, nuclear size, and necrotic cell death, a second scan was performed that captured one field at the edge of the well (51). Parameters exported and plotted were SelectedObjectCountPerValidField (cell density), MEAN ObjectAreaCh1 (nucleus size), and % RESPONDER MeanAvgIntenCh2 (percent PI positive cells based on based on a threshold set with vehicle treated cells).

cellular MAPK activity = conditions: literature value; cited from earlier work
MDA-MB-231 cells [9] = test: Toxicity reversal (rescue from BCI-215 toxicity by MAPK inhibitors); format: cell-based, human; conditions: MAPK inhibitor pre-incubation, then BCI-215 25 μM, 24 hours
Protocol: Cells were pre-treated (30 min for SCH772984, SP600125, SB203580, and 3 hours for JNK-IN-8) with identical concentration gradients of MAPK inhibitors on the right and left halves of a 384 well microplate. After preincubation, half of the microplate was treated with vehicle (DMSO), the other with a pro-apoptotic concentration of BCI-215 (25 μM). To eliminate potential bias through plate/edge effects, an independent plate was prepared in parallel where vehicle and BCI-215 treatments were reversed. Twenty-four hours thereafter, plates were stained with Hoechst 33342, washed once, and imaged on the ArrayScan II using a 10× objective for analysis for cell numbers and nuclear morphology. Plates were subsequently immunostained with a cleaved caspase-3/Cy5-conjugated secondary antibody pair and analyzed for apoptosis on an ArrayScan VTI using a 20×0.75 NA objective. Four independent readouts were extracted and correlated: cell density (SelectedObjectCountPerValidField), nuclear condensation (MEAN_ObjectAvgIntenCh1), nucleus rounding (MEAN_ObjectShapeLWRCh1), and average cellular cleaved caspase-3 intensity (MEAN_AvgIntenCh2). For each parameter, data were normalized to vehicle (maximum rescue) and BCI-215 (no rescue) as % rescue=1−((data point−DMSO)/(DMSO-BCI-215))*100.

MDA-MB-231 cells [10] = test: Immune cell killing (sensitization to PBMC-derived LAK); format: cell-based, human; conditions: pre-treated 24 hours: BCI-215 3 μM, cisplatin 2 μM, doxorubicin 400 nM
Protocol: Peripheral blood mononuclear cells were obtained from healthy volunteers with an established IRB approved protocol, separated from heparinized blood on Ficoll-hypaque (GE Healthcare, Chicago) gradients as previously reported (16). Cells were cultured in RPMI 1640 supplemented with 10% FCS, 1% glutamine, 1% penicillin/streptomycin, and stimulated with 6,000 IU of Interleukin 2 for 24 hours. After incubation, cells were washed with PBS and counted. In parallel, MBA-MB-231 cells were pre-treated in a 384 well plate with vehicle or BCI-215 (3 μM). After 24 hours in culture, medium was replaced and PBMC added in two-fold serial dilutions starting with a 50-fold excess of PBMCs in triplicate. After 24 hours of co-culture, cells were fixed with formaldehyde/Hoechst 33342, washed twice with PBS, and imaged on the ArrayScan II. Cancer cells were identified by their larger nuclei compared with PBMC, setting a size gate in the DAPI channel. In experiments with chemotherapeutics, cells carrying a biosensor consisting of a mitochondrial targeting sequence derived from cytochrome c oxidase VIII linked to GFP that is a surrogate for cytochrome c release from mitochondria (17) were pre-treated for 24 hours with cisplatin (2 μM) or doxorubicin (400 nM), exposed to LAK as above, and cancer cells identified and quantified by green fluorescence. Cell densities were normalized to those in the absence of PBMCs. Mean cell densities from multiple independent experiments were averaged and plotted in GraphPad Prism.

[11] = rat hepatocytes, 5-day exposure

O=C1/C(=C/c2ccccc2)C(NC2CCCCC2)c2ccccc21 (centres unmarked) [BCI, (E)-2-benzylidene-3-(cyclohexylamino)-2,3-dihydro-1H-inden-1-one]
mitochondrial membrane integrity / potential (TMRE) (rat hepatocytes [1]): did not affect mitochondrial potential | GI50 (NCI 60 cell line panel): 1.84 µM | activation (phosphorylation) of ERK, JNK/SAPK and p38 [2]: activated all three kinases | effect on ectopic DUSP6/MKP-3 and DUSP1/MKP-1 expression [3]: override the effects | EC50 (MDA-MB-231 cells [4]; Homo sapiens): 20 µM | hepatocyte toxicity, cell death (PI positive cells) (rat hepatocytes [5]; [11]): caused cell death | cell death in pre-B-ALL cells [6]: selectively induced cell death | nuclear morphology (MDA-MB-231 cells [7]; BCI and BCI-215 at 22 μM): shrunken, condensed nuclei that resembled pyknosis | IC50 (MDA-MB-231 cells [7]; induction of phospho-ERK, read-out: IC50 ERK phosphorylation): 8.59 µM | IC50 (MDA-MB-231 cells [7]; read-out: IC50 Caspase-3 cleavage): 9.17 µM | IC50 (MDA-MB-231 cells [7]; read-out: IC50 Nuclear condensation): 12.8 µM | necrosis (% PI positive cells) (MDA-MB-231 cells [8]): Necrosis was reduced

Cc1cc(NC(=O)c2cccc(NC(=O)/C=C/CN(C)C)c2)ccc1Nc1nccc(-c2cccnc2)n1 [JNK-IN-8]
published concentration reported to inhibit cellular MAPK activity (cellular MAPK activity): 0.5 µM | reversal of BCI-215-induced cell loss, nuclear morphology changes and apoptosis (MDA-MB-231 cells [9]): no effect

O=C1C(SCCO)=C(SCCO)C(=O)c2ccccc21 [NSC95397]
mitochondrial membrane integrity / potential (TMRE) (rat hepatocytes [1]): loss of mitochondrial membrane integrity | time to ROS generation (MDA-MB-231 cells [4]): ≤ 30 min | EC50 (MDA-MB-231 cells [4]): 3 to 5 µM | hepatocyte toxicity, cell death (PI positive cells) (rat hepatocytes [5]; [11]): caused cell death | necrosis (% PI positive cells) (MDA-MB-231 cells [8]): caused necrosis at antimigratory concentrations

C[S+]([O-])c1ccc(-c2nc(-c3ccncc3)c(-c3ccc(F)cc3)[nH]2)cc1 (centres unmarked) [SB203580]
published concentration reported to inhibit cellular MAPK activity (cellular MAPK activity): 10 µM | reversal of BCI-215-induced cell loss, nuclear morphology changes and apoptosis (MDA-MB-231 cells [9]): partially reversed

O=C(Nc1ccc2[nH]nc(-c3ccncc3)c2c1)[C@@H]1CCN(CC(=O)N2CCN(c3ccc(-c4ncccn4)cc3)CC2)C1 [SCH772984]
published concentration reported to inhibit cellular MAPK activity (cellular MAPK activity): 0.03 µM | reversal of BCI-215-induced cell loss, nuclear morphology changes and apoptosis (MDA-MB-231 cells [9]): no effect

N.N.[Cl][Pt][Cl] [cisplatin]
sensitization to LAK activity (MDA-MB-231 cells [10]): sensitized cells to LAK activity

COc1cccc2c1C(=O)c1c(O)c3c(c(O)c1C2=O)C[C@@](O)(C(=O)CO)C[C@@H]3O[C@H]1C[C@H](N)[C@H](O)[C@H](C)O1 [doxorubicin]
sensitization to LAK activity (MDA-MB-231 cells [10]): sensitized cells to LAK activity

CC1=CC(=O)c2ccccc2C1=O [menadione]
mitochondrial membrane integrity / potential (TMRE) (rat hepatocytes [1]): loss of mitochondrial membrane integrity | hepatocyte toxicity, cell death (PI positive cells) (rat hepatocytes [5]): caused cell death

C[n+]1cc2c3c(ccc2c2ccc4cc5c(cc4c21)OCO5)OCO3 [sanguinarine]
mitochondrial membrane integrity / potential (TMRE) (rat hepatocytes [1]): loss of mitochondrial membrane integrity | hepatocyte toxicity, cell death (PI positive cells) (rat hepatocytes [5]; [11]): caused cell death
